Measured values published in PubChem BioAssay (NCI).
Values joined by “and” are separate entries in the source; they are usually repeats but may differ in a detail not shown here. Equal entries are not always repeated.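 Five compound concentrations were applied to cells in 96-well plates for 48 hours; endpoints were derived by simple linear interpolation of the resulting dose-response curve. GI50: concentration for 50% inhibition of growth. TGI denotes the concentration required for complete inhibition of growth.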

What was measured:
Test in all cases: growth of human tumour cells (NCI), 48 h
786-0 renal = system: 786-0 renal
HCT-116 colon = system: HCT-116 colon
HCT-15 colon = system: HCT-15 colon
HOP-62 NSCLC = system: HOP-62 NSCLC
HS 578T breast = system: HS 578T breast
HT29 colon = system: HT29 colon
KM12 colon = system: KM12 colon
MALME-3M melanoma = system: MALME-3M melanoma
SNB-19 CNS = system: SNB-19 CNS
SW-620 colon = system: SW-620 colon

Row | SMILES | TGI (786-0 renal) | TGI (HCT-116 colon) | TGI (HCT-15 colon) | TGI (HOP-62 NSCLC) | TGI (HS 578T breast) | TGI (HT29 colon) | TGI (KM12 colon) | TGI (MALME-3M melanoma) | TGI (SNB-19 CNS) [µM] | TGI (SW-620 colon) | GI50 (786-0 renal) [µM] | GI50 (HCT-116 colon) | GI50 (HCT-15 colon) | GI50 (HOP-62 NSCLC) | GI50 (HS 578T breast) [µM] | GI50 (HT29 colon) | GI50 (KM12 colon) | GI50 (MALME-3M melanoma) | GI50 (SNB-19 CNS) [µM] | GI50 (SW-620 colon)
1 | O=NNc1ccc(-c2ccccc2)cn1 | > 39.2 µM | 29.9 µM | 56.1 µM | 20.6 µM | > 58.9 µM | 99.6 µM | > 82.1 µM | 49.8 µM | > 69 | > 77 µM |  |  |  |  |  |  |  |  |  | 
2 | OCc1c(-c2cccs2)oc(-c2cccs2)c1CO | > 100 µM | > 100 µM | > 100 µM | > 100 µM | > 100 µM | > 100 µM | > 100 µM | 94.6 µM | > 100 | > 100 µM | > 100 | 44.1 µM | 40.1 µM | > 100 µM | 44.2 | 41 µM | 21.3 µM | 30.1 µM | 67.5 | 63.6 µM
3 | CC(NCCN(C)C)C1CCC2C3CCc4cc(O)ccc4C3CCC12C (configuration not stated) | 4.1 µM | 7.7 µM | 9.49 µM | 8.7 µM | 18.1 µM | 8.45 µM | 10.3 µM | 3.73 µM | 13.2 | 12.7 µM |  |  |  |  |  |  |  |  |  | 
4 | COc1ccc(CCN2CCCn3c2nc2ccccc2c3=O)cc1 | > 100 µM | > 100 µM | > 100 µM | > 61.8 µM | > 100 µM | > 28.4 µM | > 20.5 µM | > 100 µM | > 100 | > 100 µM | 0.299 | 0.0493 µM | 0.0444 µM | 0.084 µM | 0.356 | 0.0365 µM | 0.0445 µM | 0.0538 µM | 0.629 | 0.0508 µM
5 | COc1ccc(-n2cc(-c3cc(OC)c(OC)c(OC)c3)nc2SCc2cccc(C#N)c2)cc1OC | > 100 µM | > 100 µM | > 100 µM | > 100 µM | > 100 µM | > 100 µM | > 100 µM | > 100 µM | > 100 | > 100 µM | > 100 | 46 µM | > 100 µM | > 100 µM | 62.2 | 14.1 µM | > 100 µM | > 100 µM | > 100 | 34 µM
6 | CNC(=O)[C@H](Cc1c[nH]c2ccccc12)NC(=O)[C@@H](CC(=O)NO)CC(C)C | > 25 µM | > 25 µM | > 25 µM | > 25 µM | > 25 µM | > 25 µM | > 25 µM | > 25 µM | > 25 | > 25 µM | > 25 | > 25 µM | > 25 µM | > 25 µM | > 25 | > 25 µM | > 25 µM | > 25 µM | > 25 | > 25 µM
7 | O=C(Nc1cc(Cl)c(I)c(Cl)c1)C(F)(F)F | 74.4 µM | 71.2 µM | 45.9 µM | > 100 µM | 75.7 µM | 37.4 µM | 85.4 µM |  | > 100 | > 100 µM |  |  |  |  |  |  |  |  |  | 
8 | NCC(=O)Nc1ccc(Cl)cc1C(=O)c1ccc[nH]1 | > 100 µM | > 100 µM | > 100 µM | > 100 µM | > 100 µM | > 100 µM | > 100 µM | > 100 µM | > 100 | > 100 µM |  |  |  |  |  |  |  |  |  | 
9 | CC(C)(C)OC(=O)N(CCCCN(CCCn1c2c(c3ccccc3c1=O)C(=O)c1ccccc1-2)C(=O)OC(C)(C)C)CCCn1c2c(c3ccccc3c1=O)C(=O)c1ccccc1-2 | > 100 µM | > 100 µM | > 100 µM | 73.8 µM | 59.6 µM | > 100 µM | > 100 µM | > 100 µM | > 100 | > 100 µM | 26.8 | 1.9 µM | 23.4 µM | 11 µM | 13.1 | 54.6 µM | 79.6 µM | > 100 µM | 72 | 32.3 µM
10 | COc1ccc(-c2nc(NC(=O)CS(=O)(=O)c3ccc(F)cc3)sc2C)cc1 | 61.3 µM | 38.7 µM | > 100 µM | 87.1 µM | 63.3 µM | 39.4 µM | 61 µM | 66.4 µM | > 100 | > 100 µM | 23 | 17.5 µM | 12.5 µM | 22.4 µM | 14.8 | 11 µM | 14.6 µM | 23 µM | 33.4 | 13.7 µM
11 | Cc1cccc(CNc2c3ccccc3nc3ccccc23)c1 | 4.09 µM | 4.4 µM | 4.59 µM | 16.1 µM | 6.6 µM | 10.1 µM | 12.1 µM | 3.17 µM | 13 | 5.63 µM | 1.89 | 0.927 µM | 1.83 µM | 3.14 µM | 2.2 | 1.7 µM | 3.16 µM | 1.66 µM | 3.07 | 1.74 µM
12 | O=C(NCCCN1CCN(CCCNC(=O)c2cccc3ccccc23)CC1)c1cccc2ccccc12 | > 100 µM | > 100 µM | > 100 µM | > 100 µM |  | > 100 µM | > 100 µM | > 100 µM | > 100 | > 100 µM |  |  |  |  |  |  |  |  |  | 
13 | S=C1SCC2CCCN12 (configuration not stated) | > 100 µM | > 100 µM | > 100 µM | > 100 µM |  | > 100 µM | > 100 µM | > 100 µM | > 100 | > 100 µM |  |  |  |  |  |  |  |  |  | 
14 | CCC/C=C/C=C/C(=O)OC1/C(=C/C(=O)OC)CC2CC(C(C)O)OC(=O)CC(O)CC3CC(OC(C)=O)C(C)(C)C(O)(CC4C/C(=C/C(=O)OC)CC(/C=C/C(C)(C)C1(O)O2)O4)O3 (configuration not stated) | 11 µM and > 12.5 µM | > 10.9 µM and 11 µM and > 12.5 µM | 7.35 µM and 11 µM and > 12.5 µM | 11 µM and > 12.5 µM | 10.8 µM and > 12.5 µM | > 10.9 µM and 10.8 µM and > 12.5 µM | > 10.9 µM and 9.07 µM and > 12.5 µM | 11 µM and > 12.5 µM | > 12.5 | > 10.9 µM and 4.91 µM and > 12.5 µM | > 12.5 | > 10.9 µM and 5.2 µM and > 12.5 µM | 5.15 µM and 10.8 µM and > 12.5 µM | 10.9 µM and > 12.5 µM | > 12.5 | > 10.9 µM and 5.12 µM and > 12.5 µM | > 10.9 µM and 6.75 µM and > 12.5 µM | 5.71 µM and > 12.5 µM | > 11 | > 10.9 µM and 2.99 µM and > 12.5 µM
